According to PubChem BioAssay AID220 (DTP/NCI, 2004):
“And” between values parts separate entries of the source, which are not always exact repeats. Identical values can stand only once. Inconclusive results are not listed.

Tested on: CD8F1 mice, subcutaneous mammary adenocarcinoma, T/C%
Assay: NCI In Vivo Anticancer Drug Screen. Data for tumor model Mammary Adenocarcinoma CD8F1 (subcutaneous) in CD8F1
Conditions: higher = larger tumour
Procedure, shortened: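 Ratio of treated to vehicle-control outcome, based on either survival or tumor size, in mice bearing transplantable tumors given the test compound.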

[1] = endpoint: median tumor weight (est.), dose: 12.5 mg/kg/injection, schedule: Q07DX005 (ip), vehicle: saline
[2] = endpoint: median tumor weight (est.), dose: 50.0 mg/kg/injection, schedule: Q07DX005 (ip), vehicle: saline
[3] = endpoint: median tumor weight (est.), dose: 50.0 mg/kg/injection, schedule: Q07DX005 (ip), vehicle: suspension in saline
[4] = endpoint: median tumor weight (est.), dose: 100.0 mg/kg/injection, schedule: Q07DX005 (ip), vehicle: saline
[5] = endpoint: median tumor weight (est.), dose: 100.0 mg/kg/injection, schedule: Q07DX005 (ip), vehicle: suspension in saline
[6] = endpoint: median tumor weight (est.), dose: 200.0 mg/kg/injection, schedule: Q07DX005 (ip), vehicle: saline
[7] = endpoint: median tumor weight (est.), dose: 200.0 mg/kg/injection, schedule: Q07DX005 (ip), vehicle: suspension in saline
[8] = endpoint: median tumor weight (est.), dose: 400.0 mg/kg/injection, schedule: Q07DX005 (ip), vehicle: saline
[9] = endpoint: median tumor weight change, dose: 125.0 mg/kg/injection, schedule: Q01DX001 (ip), vehicle: saline with Tween-80
[10] = endpoint: median tumor weight (est.), dose: 25.0 mg/kg/injection, schedule: Q07DX005 (ip), vehicle: saline
[11] = endpoint: median tumor weight (est.), dose: 12.5 mg/kg/injection, schedule: Q07DX005 (ip), vehicle: saline with Tween-80
[12] = endpoint: median tumor weight (est.), dose: 25.0 mg/kg/injection, schedule: Q07DX005 (ip), vehicle: saline with Tween-80
[13] = endpoint: median tumor weight (est.), dose: 50.0 mg/kg/injection, schedule: Q07DX005 (ip), vehicle: saline with Tween-80
[14] = endpoint: median tumor weight (est.), dose: 200.0 mg/kg/injection, schedule: Q07DX005 (ip), vehicle: saline with Tween-80
[15] = endpoint: median tumor weight (est.), dose: 400.0 mg/kg/injection, schedule: Q07DX005 (ip), vehicle: saline with Tween-80

COC1C(O)CC(OC2CC(OC3CC(O[C@@H]4C(=O)c5c(cc6cc(OC7CC(OC8CC(O)C(O)C(C)O8)C(O)C(C)O7)c(C)c(O)c6c5O)C[C@H]4[C@H](OC)C(=O)[C@@H](O)[C@@H](C)O)OC(C)C3O)OC(C)C2O)OC1C (stereo partly specified)
T/C (endpoint: median tumor weight (est.), dose: 0.18 mg/kg/injection, schedule: Q07DX005 (ip), vehicle: saline): 88 % of control | T/C (endpoint: median tumor weight (est.), dose: 0.75 mg/kg/injection, schedule: Q07DX005 (ip), vehicle: saline): 24 % of control and 42 % of control

N=c1nc2n(cc1F)[C@@H]1O[C@H](CO)[C@@H](O)[C@@H]1O2
T/C [1]: 25 % of control | T/C [2]: 71 % of control | T/C [3]: 86 % of control | T/C [4]: 68 % of control | T/C [5]: 57 % of control | T/C [6]: 56 % of control | T/C [7]: 63 % of control | T/C [8]: 33 % of control | T/C (endpoint: median tumor weight (est.), dose: 400.0 mg/kg/injection, schedule: Q07DX005 (ip), vehicle: suspension in saline): 69 % of control | T/C (endpoint: median tumor weight (est.), dose: 800.0 mg/kg/injection, schedule: Q07DX005 (ip), vehicle: suspension in saline): 58 % of control | T/C (endpoint: median tumor weight (est.), dose: 1600.0 mg/kg/injection, schedule: Q07DX005 (ip), vehicle: suspension in saline): 72 % of control

[Cl][Sn]([c]1ccccc1)[c]1ccccc1
T/C (endpoint: median tumor weight change, dose: 1.56 mg/kg/injection, schedule: Q01DX001 (ip), vehicle: saline): 81 % of control | T/C (endpoint: median tumor weight change, dose: 3.12 mg/kg/injection, schedule: Q01DX001 (ip), vehicle: saline): 63 % of control | T/C (endpoint: median tumor weight change, dose: 6.25 mg/kg/injection, schedule: Q01DX001 (ip), vehicle: saline): 94 % of control | T/C (endpoint: median tumor weight change, dose: 12.5 mg/kg/injection, schedule: Q01DX001 (ip), vehicle: saline): 81 % of control | T/C (endpoint: median tumor weight change, dose: 25.0 mg/kg/injection, schedule: Q01DX001 (ip), vehicle: saline): 78 % of control | T/C (endpoint: median tumor weight change, dose: 25.0 mg/kg/injection, schedule: Q01DX001 (ip), vehicle: water): 47 % of control

C=C1C(C)C2C(Cc3ccccc3)NC(=O)C23C(OC(C)=O)/C=C/C(C)(O)CC(C)C/C=C/C3C1O (stereo unspecified)
T/C (endpoint: median tumor weight change, dose: 7.5 mg/kg/injection, schedule: Q01DX001 (ip), vehicle: Klucel (hydroxypropylcellulose) (HPC)): 61 % of control and 66 % of control

O=[N+]([O-])c1ccc(-n2[nH]nnc2=S)cc1
T/C [9]: 101 % of control and 119 % of control | T/C (endpoint: median tumor weight change, dose: 250.0 mg/kg/injection, schedule: Q01DX001 (ip), vehicle: saline with Tween-80): 112 % of control

C[C@@H](CN1CC(=O)NC(=O)C1)N1CC(=O)NC(=O)C1
T/C [10]: 75 % of control | T/C [2]: 39 % of control | T/C (endpoint: median tumor weight (est.), dose: 100.0 mg/kg/injection, schedule: Q07DX005 (ip), vehicle: Klucel (hydroxypropylcellulose) (HPC)): 52 % of control | T/C [4]: 85 % of control | T/C (endpoint: median tumor weight (est.), dose: 200.0 mg/kg/injection, schedule: Q07DX005 (ip), vehicle: Klucel (hydroxypropylcellulose) (HPC)): 107 % of control | T/C [6]: 46 % of control | T/C (endpoint: median tumor weight (est.), dose: 400.0 mg/kg/injection, schedule: Q07DX005 (ip), vehicle: Klucel (hydroxypropylcellulose) (HPC)): 37 % of control | T/C [8]: 45 % of control | T/C (endpoint: median tumor weight (est.), dose: 800.0 mg/kg/injection, schedule: Q07DX005 (ip), vehicle: Klucel (hydroxypropylcellulose) (HPC)): 10 % of control | T/C (endpoint: median tumor weight (est.), dose: 800.0 mg/kg/injection, schedule: Q07DX005 (ip), vehicle: saline): 13 % of control

O=NN(CCCl)C(=O)NC1CCC(=O)NC1=O (stereo unspecified)
T/C (endpoint: median tumor weight (est.), dose: 4.0 mg/kg/injection, schedule: Q07DX005 (ip), vehicle: saline with Tween-80): 49 % of control | T/C (endpoint: median tumor weight (est.), dose: 8.0 mg/kg/injection, schedule: Q07DX005 (ip), vehicle: saline with Tween-80): 24 % of control | T/C (endpoint: median tumor weight (est.), dose: 13.0 mg/kg/injection, schedule: Q07DX005 (ip), vehicle: saline with Tween-80): 12 % of control | T/C (endpoint: median tumor weight (est.), dose: 20.0 mg/kg/injection, schedule: Q07DX005 (ip), vehicle: saline with Tween-80): 6 % of control

O=C/C(Cl)=C(/Cl)C(=O)O
T/C (endpoint: median tumor weight (est.), dose: 2.5 mg/kg/injection, schedule: Q07DX005 (ip), vehicle: saline with Tween-80): 190 % of control | T/C (endpoint: median tumor weight (est.), dose: 5.0 mg/kg/injection, schedule: Q07DX005 (ip), vehicle: saline with Tween-80): 121 % of control | T/C (endpoint: median tumor weight (est.), dose: 10.0 mg/kg/injection, schedule: Q07DX005 (ip), vehicle: saline with Tween-80): 245 % of control

c1ccc2c(NCCCCCCCCNc3c4ccccc4nc4ccccc34)c3ccccc3nc2c1
T/C (endpoint: median tumor weight (est.), dose: 5.0 mg/kg/injection, schedule: Q07DX005 (ip), vehicle: Klucel (hydroxypropylcellulose) (HPC)): 72 % of control | T/C (endpoint: median tumor weight (est.), dose: 10.0 mg/kg/injection, schedule: Q07DX005 (ip), vehicle: Klucel (hydroxypropylcellulose) (HPC)): 56 % of control | T/C (endpoint: median tumor weight (est.), dose: 20.0 mg/kg/injection, schedule: Q07DX005 (ip), vehicle: Klucel (hydroxypropylcellulose) (HPC)): 57 % of control | T/C (endpoint: median tumor weight (est.), dose: 40.0 mg/kg/injection, schedule: Q07DX005 (ip), vehicle: Klucel (hydroxypropylcellulose) (HPC)): 46 % of control

COc1ccc(OC)c(/C=C/c2ccnc3ccccc23)c1
T/C [11]: 77 % of control | T/C [12]: 93 % of control | T/C [13]: 78 % of control | T/C (endpoint: median tumor weight (est.), dose: 100.0 mg/kg/injection, schedule: Q07DX005 (ip), vehicle: saline with Tween-80): 67 % of control | T/C [14]: 86 % of control | T/C [15]: 71 % of control

C[Si](C)(C)n1nnn(-c2ccccc2)c1=O
T/C (endpoint: mean tumor weight, dose: 25.0 mg/kg/injection, schedule: Q07DX006 (ip), vehicle: saline with Tween-80): 100 % of control | T/C (endpoint: mean tumor weight, dose: 50.0 mg/kg/injection, schedule: Q07DX006 (ip), vehicle: saline with Tween-80): 164 % of control | T/C (endpoint: mean tumor weight, dose: 400.0 mg/kg/injection, schedule: Q07DX006 (ip), vehicle: saline with Tween-80): 102 % of control | T/C [11]: 79 % of control | T/C [12]: 65 % of control | T/C [13]: 97 % of control | T/C [14]: 77 % of control | T/C [15]: 87 % of control

NC(=S)c1cn(C2OC(CO)C(O)C2O)c2ncnc(N)c12 (stereo unspecified)
T/C (endpoint: median tumor weight change, dose: 3.12 mg/kg/injection, schedule: Q01DX001 (ip), vehicle: suspension in saline): 96 % of control | T/C (endpoint: median tumor weight change, dose: 6.25 mg/kg/injection, schedule: Q01DX001 (ip), vehicle: suspension in saline): 68 % of control | T/C (endpoint: median tumor weight change, dose: 12.5 mg/kg/injection, schedule: Q01DX001 (ip), vehicle: suspension in saline): 76 % of control

CC1=CC(=NN=c2cc(C)n([O-])c(C)c2)C=C(C)[N+]1=O
T/C (endpoint: median tumor weight change, dose: 100.0 mg/kg/injection, schedule: Q01DX001 (ip), vehicle: suspension in saline): 76 % of control | T/C [9]: 118 % of control | T/C (endpoint: median tumor weight change, dose: 125.0 mg/kg/injection, schedule: Q01DX001 (ip), vehicle: saline): 55 % of control | T/C (endpoint: median tumor weight change, dose: 200.0 mg/kg/injection, schedule: Q01DX001 (ip), vehicle: suspension in saline): 85 % of control | T/C (endpoint: median tumor weight change, dose: 250.0 mg/kg/injection, schedule: Q01DX001 (ip), vehicle: saline): 117 % of control | T/C (endpoint: median tumor weight change, dose: 400.0 mg/kg/injection, schedule: Q01DX001 (ip), vehicle: suspension in saline): 80 % of control | T/C (endpoint: median tumor weight change, dose: 500.0 mg/kg/injection, schedule: Q01DX001 (ip), vehicle: saline with Tween-80): 94 % of control | T/C (endpoint: median tumor weight change, dose: 500.0 mg/kg/injection, schedule: Q01DX001 (ip), vehicle: saline): 100 % of control | T/C (endpoint: median tumor weight change, dose: 800.0 mg/kg/injection, schedule: Q01DX001 (ip), vehicle: suspension in saline): 40 % of control | T/C (endpoint: median tumor weight change, dose: 1000.0 mg/kg/injection, schedule: Q01DX001 (ip), vehicle: saline): 17 % of control

Nc1ccn([C@@H](C=O)O[C@@H](C=O)CO)c(=O)n1
T/C (endpoint: median tumor weight (est.), dose: 25.0 mg/kg/injection, schedule: Q07DX005 (ip), vehicle: suspension in saline): 122 % of control | T/C [3]: 188 % of control | T/C [5]: 151 % of control | T/C [7]: 105 % of control

O=C(Nc1ccc(N=C=S)cc1Cl)c1cc(Cl)cc(Cl)c1O
T/C (endpoint: median tumor weight (est.), dose: 12.5 mg/kg/injection, schedule: Q07DX005 (ip), vehicle: Klucel (hydroxypropylcellulose) (HPC)): 79 % of control | T/C [1]: 118 % of control | T/C (endpoint: median tumor weight (est.), dose: 25.0 mg/kg/injection, schedule: Q07DX005 (ip), vehicle: Klucel (hydroxypropylcellulose) (HPC)): 49 % of control | T/C [10]: 96 % of control | T/C (endpoint: median tumor weight (est.), dose: 50.0 mg/kg/injection, schedule: Q07DX005 (ip), vehicle: Klucel (hydroxypropylcellulose) (HPC)): 26 % of control | T/C [2]: 111 % of control | T/C [4]: 78 % of control
